Experimental findings from ChEMBL document CHEMBL1158973, “The crystal structure and cytotoxicity of goniodiol-7-monoacetate from Goniothalamus amuyon” (1991) are described below.

Assay [1] concerns A549. Description: Cytotoxicity against human A549 cells. Type of assay: functional. The settings on record: read-out: ED50 (the source's name).
The subject of assay [2] is KB. Description: Cytotoxicity against human KB cells. Type of assay: functional. The following applies: read-out: ED50 (the source's name).
Assay [3] has as its system P388. Description: Cytotoxicity against mouse P388 cells. Type of assay: functional. The following applies: read-out: ED50 (the source's name).
Assay [4] can be described thus: Cytotoxicity against human RPMI cells. In kind it is functional. The following applies: read-out: ED50 (the source's name).
The test system of assay [5] is TE-671. In words: Cytotoxicity against human TE671 cells. The settings on record: read-out: ED50 (the source's name). In kind it is functional.
Assay [6] relates to A549. In words: Cytotoxicity against human A549 cells at 4 ug/ml. In kind it is functional, cell-based.
The subject of assay [7] is HCT-8. Description: Cytotoxicity against human HCT8 cells at 4 ug/ml. Type of assay: functional, cell-based.

Converted amounts (≈) assume the structure as drawn. The source made the active and inactive calls. The rule behind the calls is not given here.

With `O=C1C=CC[C@H]([C@H](O)[C@H](O)c2ccccc2)O1` [GONIODIOL], in assay [1], the EC50 was 0.12 µg/mL (≈ 0.512 µM).
In the case of `CC(=O)O[C@H]([C@H](O)c1ccccc1)[C@H]1CC=CC(=O)O1`, the EC50 in assay [2], in assay [3], in assay [4] and in assay [5] was less than 0.1 µg/mL in each case. The outcome in assay [6] and in assay [7] was inactive.
